Measurements from patent US20240287108A1, “nSMASE2 INHIBITOR PRODRUGS WITH ENHANCED ORAL AND BRAIN EXPOSURES” (The Johns Hopkins University, priority 2021, published 2024).
“Also recorded” adds a separate entry of the source.

Experiments:
[1] = tested on: IL-1β-induced release of GFP+ EVs into plasma; test: EV release in vivo, IL-1β mouse model of acute brain injury; conditions: P18 3 and 10 mg/kg DPTIP equivalent PO 30 min before intrastriatal IL-1β; 4 h
From the text: (§1) We have previously reported that nSMase2 regulates the secretion of extracellular vesicles from astrocytes in response to a focal inflammatory brain lesion. Rojas et al., 2018. Striatal injection of IL-1β in mice expressing GFAP-EGFP in astroglia evokes the release of GFP-labelled EVs that rapidly enter into plasma and target multiple organ systems. Dickens et al., 2017. We used this mouse model to evaluate the ability of P18 to inhibit EV release by the inhibition of nSMase2 activity in vivo. […] Interleukin-1β-injected mice, orally pre-dosed with P18 (30 min prior) were euthanized 4-hours post-IL-1β injection. GFP labeled (GFP+) EVs were quantified in plasma and nSMase2 activity was measured in the brain striata.
Striatal injections and EV measurements were performed as previously described by our group. Dickens et al., 2017; Mccluskey et al., 2008. […] Mice subjected to intrastriatal injection of IL-1β were also injected with the NSAID carprofen (rimadyl, 5 mg/kg. i.p.) and closely monitored during recovery; no adverse reactions were observed. […] Quantitation of Plasma EVs: Dynabeads M-450) Epoxy (Invitrogen) were coupled with anti-GFP antibody (Thermo Fisher) at a ratio of 200-μg antibody per 4×10^8 beads. […] The concentration of immunoprecipitated GFP+ EVs was quantified using ZetaView nanoparticle tracking analysis (Particle Metrix) and corresponding ZetaView software (8.05.14.SP7). […]

nSMase2 = biological target: T1, nSMase2 (Mus musculus, UniProt Q9JJY3); test: nSMase2 activity in striata of IL-1β-injected mice; format: in vivo; conditions: P18 3 and 10 mg/kg DPTIP equivalent PO 30 min before intrastriatal IL-1β; 4 h
T1 construct: the striata dissected and analyzed for nSMase2 activity using a modification of previously published protocols; from tissue; host or cells: striata of GFAP-EGFP transgenic mice, homogenised and sonicated lysate
T1 sequence (Q9JJY3 1-655): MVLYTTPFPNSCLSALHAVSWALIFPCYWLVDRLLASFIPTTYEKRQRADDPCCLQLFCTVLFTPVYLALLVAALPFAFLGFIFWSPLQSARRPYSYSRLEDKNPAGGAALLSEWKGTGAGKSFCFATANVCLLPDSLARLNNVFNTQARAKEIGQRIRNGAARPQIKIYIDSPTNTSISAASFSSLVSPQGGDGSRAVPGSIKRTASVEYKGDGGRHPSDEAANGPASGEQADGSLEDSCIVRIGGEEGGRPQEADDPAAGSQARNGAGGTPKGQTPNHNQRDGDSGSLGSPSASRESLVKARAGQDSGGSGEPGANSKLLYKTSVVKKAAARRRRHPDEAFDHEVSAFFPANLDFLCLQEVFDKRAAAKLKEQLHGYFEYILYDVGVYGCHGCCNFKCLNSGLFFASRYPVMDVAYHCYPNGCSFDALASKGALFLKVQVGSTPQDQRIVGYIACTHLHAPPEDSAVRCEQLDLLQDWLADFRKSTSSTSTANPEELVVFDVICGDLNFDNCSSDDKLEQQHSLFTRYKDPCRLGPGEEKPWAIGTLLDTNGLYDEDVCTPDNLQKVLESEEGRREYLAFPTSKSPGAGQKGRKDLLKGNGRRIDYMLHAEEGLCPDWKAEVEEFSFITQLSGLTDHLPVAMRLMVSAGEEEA
From the text: as §1
Rojas et al., 2018; Figuera-Losada et al., 2015. Briefly, mice striata were homogenized in ice-cold Tris-HCl buffer (0.1 M, pH 7.5) containing 250 mM sucrose, 10 mM EGTA (Research Products International, Prospect, IL), 100 μM sodium molybdate and protease inhibitors (Cell Signaling, Danvers, MA) using Biomasher II and then sonicated using Kontes' Micro Ultrasonic Cell Disrupter (three pulses of 15 s duration on ice with 30 s between pulses). […] At the end of the reaction period, the relative fluorescence units were measured at Ex 530 nm, Em 590 nm. […]

CCC1CC(N2CCCCC2)CC(CC)N1C(=O)Oc1c(OC)cc(-c2nc(-c3ccccc3)c(-c3cccs3)[nH]2)cc1OC (centres unmarked) [Compound P18, 2,6-Dimethoxy-4-(5-phenyl-4-(thiophen-2-yl)-1H-imidazol-2-yl)phenyl 2′,6′-diethyl-[1,4′-bipiperidine]-1′-carboxylate]
IL-1β-induced release of GFP+ EVs into plasma [1]: significantly inhibited IL-1β-induced EV release into plasma; also recorded: inhibited the release of brain derived GFP+ EVs into blood at both 3 and 10 mg/kg; also recorded: significant inhibition
nSMase2 activity in brain striata (nSMase2): attenuated nSMase2 activity; also recorded: inhibition of brain nSMase2 activity; also recorded: reduced nSMase2 activity increased in response to IL-1β in a dose dependent manner; also recorded: significant inhibition of nSMase2 activity
